Like-named read-outs stand apart in the source and are kept apart here.
What was measured:
Assay type in all cases: binding
[1] = target: T1, HeLa cell extract proteins (Homo sapiens, UniProt P60510)
T1 construct: endogenous in cells; host or cells: HeLa cell extract
T1 sequence (P60510 1-307): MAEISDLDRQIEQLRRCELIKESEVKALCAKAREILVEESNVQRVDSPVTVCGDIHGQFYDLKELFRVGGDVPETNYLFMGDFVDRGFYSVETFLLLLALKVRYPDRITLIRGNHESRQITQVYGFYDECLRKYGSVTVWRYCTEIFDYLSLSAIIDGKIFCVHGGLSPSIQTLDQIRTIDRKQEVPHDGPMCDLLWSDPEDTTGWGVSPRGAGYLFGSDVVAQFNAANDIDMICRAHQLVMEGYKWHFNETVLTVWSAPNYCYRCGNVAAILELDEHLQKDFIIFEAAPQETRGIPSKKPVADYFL

[2] = target: T2, HeLa cell extract proteins (Homo sapiens, UniProt Q96QU8)
T2 construct: endogenous in cells; host or cells: HeLa cell extract
T2 sequence (Q96QU8 1-1125): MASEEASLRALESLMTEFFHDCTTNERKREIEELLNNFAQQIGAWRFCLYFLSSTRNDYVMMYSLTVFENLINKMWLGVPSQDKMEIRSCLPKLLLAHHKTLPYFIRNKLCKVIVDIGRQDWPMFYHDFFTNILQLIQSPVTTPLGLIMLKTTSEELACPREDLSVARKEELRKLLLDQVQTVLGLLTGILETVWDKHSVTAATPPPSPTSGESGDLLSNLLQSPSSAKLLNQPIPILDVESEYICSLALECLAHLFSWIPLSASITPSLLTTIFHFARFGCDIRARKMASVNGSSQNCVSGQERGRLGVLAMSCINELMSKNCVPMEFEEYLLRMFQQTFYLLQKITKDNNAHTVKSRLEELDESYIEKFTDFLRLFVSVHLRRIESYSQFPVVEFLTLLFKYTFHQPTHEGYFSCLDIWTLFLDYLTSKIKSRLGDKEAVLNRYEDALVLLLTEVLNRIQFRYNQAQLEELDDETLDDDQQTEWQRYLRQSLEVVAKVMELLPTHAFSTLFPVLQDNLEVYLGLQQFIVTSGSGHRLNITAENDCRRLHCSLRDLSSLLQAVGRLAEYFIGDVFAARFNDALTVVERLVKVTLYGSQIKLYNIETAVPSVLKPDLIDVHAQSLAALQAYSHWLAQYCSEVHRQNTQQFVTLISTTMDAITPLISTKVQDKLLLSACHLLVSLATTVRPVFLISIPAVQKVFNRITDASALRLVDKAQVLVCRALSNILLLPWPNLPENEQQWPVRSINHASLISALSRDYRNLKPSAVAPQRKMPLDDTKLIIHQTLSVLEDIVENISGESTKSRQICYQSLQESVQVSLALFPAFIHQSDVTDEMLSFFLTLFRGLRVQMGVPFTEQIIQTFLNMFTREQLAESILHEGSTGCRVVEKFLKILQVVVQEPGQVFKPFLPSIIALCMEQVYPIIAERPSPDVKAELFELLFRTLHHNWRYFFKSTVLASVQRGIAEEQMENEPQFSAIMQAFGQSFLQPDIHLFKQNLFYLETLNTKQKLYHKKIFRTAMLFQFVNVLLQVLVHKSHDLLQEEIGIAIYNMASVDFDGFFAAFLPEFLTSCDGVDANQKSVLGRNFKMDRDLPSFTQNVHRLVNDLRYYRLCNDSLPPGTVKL

[3] = target: T3, HeLa cell extract proteins (Homo sapiens, UniProt Q9NWZ8)
T3 construct: endogenous in cells; host or cells: HeLa cell extract
T3 sequence (Q9NWZ8 1-242): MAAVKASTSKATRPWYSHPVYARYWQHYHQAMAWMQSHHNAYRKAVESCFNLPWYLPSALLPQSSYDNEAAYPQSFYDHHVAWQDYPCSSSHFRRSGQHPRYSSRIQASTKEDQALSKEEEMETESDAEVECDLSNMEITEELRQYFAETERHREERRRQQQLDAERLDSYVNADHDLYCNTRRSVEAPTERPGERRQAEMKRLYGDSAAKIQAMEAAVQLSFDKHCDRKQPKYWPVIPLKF

[4] = target: T4, HeLa cell extract proteins (Homo sapiens, UniProt Q9UHD8)
T4 construct: endogenous in cells; host or cells: HeLa cell extract
T4 sequence (Q9UHD8 1-586): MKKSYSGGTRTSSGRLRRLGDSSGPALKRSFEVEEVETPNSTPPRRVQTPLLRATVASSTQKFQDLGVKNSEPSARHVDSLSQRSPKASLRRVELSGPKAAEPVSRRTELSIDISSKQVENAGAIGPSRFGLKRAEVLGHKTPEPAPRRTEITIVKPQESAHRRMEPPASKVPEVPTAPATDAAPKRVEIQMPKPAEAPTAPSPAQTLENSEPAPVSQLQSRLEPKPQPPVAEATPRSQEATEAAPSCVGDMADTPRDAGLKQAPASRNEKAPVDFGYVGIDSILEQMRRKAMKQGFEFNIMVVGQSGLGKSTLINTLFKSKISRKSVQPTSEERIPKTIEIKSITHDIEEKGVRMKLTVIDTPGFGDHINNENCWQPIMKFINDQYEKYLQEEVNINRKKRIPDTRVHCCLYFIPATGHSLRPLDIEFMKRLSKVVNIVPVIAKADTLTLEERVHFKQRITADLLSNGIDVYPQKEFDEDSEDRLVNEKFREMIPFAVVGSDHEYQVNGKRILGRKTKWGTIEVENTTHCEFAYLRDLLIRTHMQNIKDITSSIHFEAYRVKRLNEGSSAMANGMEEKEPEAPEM

[5] = target: T5, HeLa cell extract proteins (Homo sapiens, UniProt P60660); details: HeLa; protein MYL6
T5 construct: endogenous in cells; host or cells: HeLa cell extract
T5 sequence (P60660 1-151): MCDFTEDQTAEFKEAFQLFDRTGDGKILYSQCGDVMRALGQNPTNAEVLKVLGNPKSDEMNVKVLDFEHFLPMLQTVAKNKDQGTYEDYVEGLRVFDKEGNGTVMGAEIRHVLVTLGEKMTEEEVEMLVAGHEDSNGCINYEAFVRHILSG

[6] = target: T6, HeLa cell extract proteins (Homo sapiens, UniProt Q8WUX1); details: HeLa; protein SLC38A5
T6 construct: endogenous in cells; host or cells: HeLa cell extract
T6 sequence (Q8WUX1 whole entry): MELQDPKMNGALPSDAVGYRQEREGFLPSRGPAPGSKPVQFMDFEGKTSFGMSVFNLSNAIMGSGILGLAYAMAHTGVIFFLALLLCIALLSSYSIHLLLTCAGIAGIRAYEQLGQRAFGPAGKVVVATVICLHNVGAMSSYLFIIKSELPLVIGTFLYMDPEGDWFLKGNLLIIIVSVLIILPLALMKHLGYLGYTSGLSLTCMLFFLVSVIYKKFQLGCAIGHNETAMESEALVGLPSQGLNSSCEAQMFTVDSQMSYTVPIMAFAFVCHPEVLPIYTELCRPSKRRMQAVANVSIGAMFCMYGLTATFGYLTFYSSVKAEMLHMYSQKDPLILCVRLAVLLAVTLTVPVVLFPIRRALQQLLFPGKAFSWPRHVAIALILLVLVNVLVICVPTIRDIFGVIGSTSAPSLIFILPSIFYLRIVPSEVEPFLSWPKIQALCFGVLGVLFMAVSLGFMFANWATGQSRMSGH

With `Nc1nc2c(c(=O)[nH]1)N(C=O)C(CNc1ccc(C(=O)N[C@@H](CCC(=O)O)C(=O)O)cc1)CN2` (stereo partly shown) [LEU, leucovorin] the “fold changes relative to vehicle control” value ([1]; protein PPP4C, HeLa) was 0.82, the “fold changes relative to vehicle control” value ([2]; HeLa, protein XPO6) was 0.99 and the “fold changes relative to vehicle control” value ([3]; HeLa, protein GEMIN8) was 0.97. For the same compound, the “fold changes relative to vehicle control” value ([4]; protein SEPT9, HeLa) was 0.93.

With `Nc1nc2[nH]cc(CCc3ccc(C(=O)N[C@@H](CCC(=O)O)C(=O)O)cc3)c2c(=O)[nH]1` [PTX, pemetrexed] the “fold changes relative to vehicle control” value [1] was 0.95, the “fold changes relative to vehicle control” value [2] was 0.98 and the “fold changes relative to vehicle control” value [3] was 0.97. The “fold changes relative to vehicle control” value [4] was 0.96.

With `CCCCCCOc1ccc(Cc2cnc(N)nc2N)cc1` [compound 1] the “fold changes relative to vehicle control” value [5] was 1.14 and the “fold changes relative to vehicle control” value [6] was 0.91.

With `CCCCCCOc1cccc(Cc2cnc(N)nc2N)c1` [compound 2] the “fold changes relative to vehicle control” value [5] was 1.3 and the “fold changes relative to vehicle control” value [6] was 1.14.

`Nc1nc2cccc(-c3ccccc3)c2n1Cc1ccc(Cl)c(Cl)c1` [compound 3] was tested, and the “fold changes relative to vehicle control” value [5] was 1.11 and the “fold changes relative to vehicle control” value [6] was 0.95.

For `NCCOCCOCC(=O)Nc1nc2ncc(CNc3ccc(C(=O)NC(CCC(=O)O)C(=O)O)cc3)nc2c(=O)[nH]1` (stereo not shown) [compound 6], the “fold changes relative to vehicle control” value ([1]; protein PPP4C, HeLa) was 0.95, the “fold changes relative to vehicle control” value ([2]; HeLa, protein XPO6) was 1.09 and the “fold changes relative to vehicle control” value ([3]; HeLa, protein GEMIN8) was 0.8. The “fold changes relative to vehicle control” value ([4]; protein SEPT9, HeLa) was 1.

For `NCCCNc1ccc(C(=O)NC(CCC(=O)O)C(=O)O)cc1` (stereo not shown) [compound 7], the “fold changes relative to vehicle control” value ([1]; protein PPP4C, HeLa) was 1, the “fold changes relative to vehicle control” value ([2]; HeLa, protein XPO6) was 1.08 and the “fold changes relative to vehicle control” value ([3]; HeLa, protein GEMIN8) was 0.86. For the same compound, the “fold changes relative to vehicle control” value ([4]; protein SEPT9, HeLa) was 0.92.
